Measurements: patent publication US20250367126A1, “SOFTGEL CAPSULE COMPRISING A H2 RECEPTOR ANTAGONIST” (KENVUE BRANDS LLC, priority 2024, published 2025)
Like-named read-outs stand apart in the source and are kept apart here.

Assays:
[1] = Description: For this evaluation, excipients were added to clear glass vials at ambient temperature. […] The vials were attached to a Burrell Action Wrist Shaker (mechanical shaker) and agitated for approximately 60 hours (hrs) at ambient conditions.
After shaking for approximately 60 hrs, a first portion of the supernatant solution from each vial was submitted for chemical analysis. A second portion of the remaining dispersions was transferred to amber vials and stored at ambient conditions.

[2] = J Pharm Pharmacol 1993, 45:682-686, cited from earlier work
[3] = Acidified PEG 400 Solution with water [PEG 400 (59.7%) + acetic acid (30.0%) + water (10.3%)], 2 Weeks in Amber Vials
[4] = Acidified PEG 400 Solution with water [PEG 400 (59.7%) + acetic acid (30.0%) + water (10.3%)], 2 Weeks in Clear Vials
[5] = Acidified PEG 400 Solution with water [PEG 400 (59.7%) + acetic acid (30.0%) + water (10.3%)], Initial
[6] = Caprylocaproyl Polyoxyl-8 Glycerides NF (Labrasol), 2 Weeks in Amber Vials
[7] = Caprylocaproyl Polyoxyl-8 Glycerides NF (Labrasol), 2 Weeks in Clear Vials
[8] = Caprylocaproyl Polyoxyl-8 Glycerides NF (Labrasol), Initial
[9] = Medium Chain Triglycerides NF (MCT), 2 Weeks in Amber Vials
[10] = Medium Chain Triglycerides NF (MCT), 2 Weeks in Clear Vials
[11] = Medium Chain Triglycerides NF (MCT), Initial
[12] = Mono/Diglycerides of Capric/Caprylic Acid NF (Capmul MCM), 2 Weeks in Amber Vials
[13] = Mono/Diglycerides of Capric/Caprylic Acid NF (Capmul MCM), 2 Weeks in Clear Vials
[14] = Mono/Diglycerides of Capric/Caprylic Acid NF (Capmul MCM), Initial
[15] = Polyethylene Glycol 400, NF (PEG 400), 2 Weeks in Amber Vials
[16] = Polyethylene Glycol 400, NF (PEG 400), 2 Weeks in Clear Vials
[17] = Polyethylene Glycol 400, NF (PEG 400), Initial
[18] = Polyoxyl-35 Castor Oil NF (Kolliphor EL), 2 Weeks in Amber Vials
[19] = Polyoxyl-35 Castor Oil NF (Kolliphor EL), 2 Weeks in Clear Vials
[20] = Polyoxyl-35 Castor Oil NF (Kolliphor EL), Initial
[21] = Polysorbate 80 NF (Tween 80), 2 Weeks in Amber Vials
[22] = Polysorbate 80 NF (Tween 80), 2 Weeks in Clear Vials
[23] = Polysorbate 80 NF (Tween 80), Initial

Equilibrium solubility of famotidine, mg/g Solvent [1, 3]: 137 mg/g
Equilibrium solubility of famotidine, mg/g Total [1, 3]: 121 mg/g
Equilibrium solubility of famotidine, mg/g Solvent [1, 4]: 141 mg/g
Equilibrium solubility of famotidine, mg/g Total [1, 4]: 124 mg/g
Equilibrium solubility of famotidine, mg/g Solvent [1, 5]: 160 mg/g
Equilibrium solubility of famotidine, mg/g Total [1, 5]: 138 mg/g
Equilibrium solubility of famotidine, mg/g Solvent [1, 6]: 58 mg/g
Equilibrium solubility of famotidine, mg/g Total [1, 6]: 55 mg/g
Equilibrium solubility of famotidine, mg/g Solvent [1, 7]: 61 mg/g
Equilibrium solubility of famotidine, mg/g Total [1, 7]: 57 mg/g
Equilibrium solubility of famotidine, mg/g Solvent [1, 8]: 61 mg/g
Equilibrium solubility of famotidine, mg/g Total [1, 8]: 57 mg/g
Equilibrium solubility of famotidine, mg/g Solvent ([1]; Glacial acetic acid, Initial): 318 mg/g
Equilibrium solubility of famotidine, mg/g Total ([1]; Glacial acetic acid, Initial): 241 mg/g
Equilibrium solubility of famotidine, mg/g Solvent [1, 12]: 3 mg/g
Equilibrium solubility of famotidine, mg/g Total [1, 12]: 3 mg/g
Equilibrium solubility of famotidine, mg/g Solvent [1, 13]: 3 mg/g
Equilibrium solubility of famotidine, mg/g Total [1, 13]: 3 mg/g
Equilibrium solubility of famotidine, mg/g Solvent [1, 14]: 3 mg/g
Equilibrium solubility of famotidine, mg/g Total [1, 14]: 3 mg/g
Equilibrium solubility of famotidine, mg/g Solvent [1, 15]: 115 mg/g
Equilibrium solubility of famotidine, mg/g Total [1, 15]: 103 mg/g
Equilibrium solubility of famotidine, mg/g Solvent [1, 16]: 116 mg/g
Equilibrium solubility of famotidine, mg/g Total [1, 16]: 104 mg/g
Equilibrium solubility of famotidine, mg/g Solvent [1, 17]: 118 mg/g
Equilibrium solubility of famotidine, mg/g Total [1, 17]: 106 mg/g
Equilibrium solubility of famotidine, mg/g Solvent [1, 18]: 64 mg/g
Equilibrium solubility of famotidine, mg/g Total [1, 18]: 60 mg/g
Equilibrium solubility of famotidine, mg/g Solvent [1, 19]: 63 mg/g
Equilibrium solubility of famotidine, mg/g Total [1, 19]: 60 mg/g
Equilibrium solubility of famotidine, mg/g Solvent [1, 20]: 64 mg/g
Equilibrium solubility of famotidine, mg/g Total [1, 20]: 60 mg/g
Equilibrium solubility of famotidine, mg/g Solvent [1, 21]: 45 mg/g
Equilibrium solubility of famotidine, mg/g Total [1, 21]: 43 mg/g
Equilibrium solubility of famotidine, mg/g Solvent [1, 22]: 36 mg/g
Equilibrium solubility of famotidine, mg/g Total [1, 22]: 35 mg/g
Equilibrium solubility of famotidine, mg/g Solvent [1, 23]: 45 mg/g
Equilibrium solubility of famotidine, mg/g Total [1, 23]: 43 mg/g
Equilibrium solubility of famotidine, mg/g Solvent ([1]; Propylene Glycol USP, Initial): 17 mg/g
Equilibrium solubility of famotidine, mg/g Total ([1]; Propylene Glycol USP, Initial): 17 mg/g
solubility of famotidine (in words) ([1]; hydrophilic solvents (PEG 400, acidified PEG 400 solution with water, glacial acetic acid)): High solubility
SMILES: NC(N)=Nc1nc(CSCCC(N)=NS(N)(=O)=O)cs1 [famotidine]
Equilibrium solubility of famotidine, mg/g Solvent [1, 9]: ND (“ND” means not detected, famotidine content was below 0.1 mg/g.)
Equilibrium solubility of famotidine, mg/g Total [1, 9]: ND (“ND” means not detected, famotidine content was below 0.1 mg/g.)
Equilibrium solubility of famotidine, mg/g Solvent [1, 10]: ND (“ND” means not detected, famotidine content was below 0.1 mg/g.)
Equilibrium solubility of famotidine, mg/g Total [1, 10]: ND (“ND” means not detected, famotidine content was below 0.1 mg/g.)
Equilibrium solubility of famotidine, mg/g Solvent [1, 11]: ND (“ND” means not detected, famotidine content was below 0.1 mg/g.)
Equilibrium solubility of famotidine, mg/g Total [1, 11]: ND (“ND” means not detected, famotidine content was below 0.1 mg/g.)
aqueous solubility [2]: poor aqueous solubility
lipophilicity [2]: poor lipophilicity
stability versus pH ([2]; liquid media): low stability outside a pH range of 6 to 7
